For data set [1], the system named is healthy adults under 65. Details: species or system human. Particulars: in vivo. From the text:
The design is a parallel group, randomized, placebo-controlled, double-blind study similar to that of Example 2, above, except that the participants are healthy adults under 65. The duration of supplementation is 6 months (180 days). Group size is chosen so that a statistically significant difference, if present, may be observed between placebo and test groups.
Participants are randomly allocated to either the 25-OH D3 group, Vitamin D3 group, (Vitamin D3+25-OH D3) group or placebo group. Double-blind randomization is carried out by means of a label code associated with a specific participant ID number, whose meaning is known only to the supplier. Participants are allocated randomly to these numbers.
For baseline (Day 0) the following tests are performed: Physical examination, vital signs (blood pressure, heart rate), demographics, clinical laboratory, FFQ, serum: 25-OH D3, 24,25(OH)2D, 1,25(OH)2D3, Vitamin D3, calcium, albumin, creatinine, fasting glucose, PTH; urine: calcium, creatinine; executive function tests (see below). […]
Executive functioning test batteries include the following standard tests of executive functioning: Trail Making Tests A and B (to determine the ratio of TMT-B/TMT-A), Stroop Colour-Word Test, including determining the Stroop ratio, calculated by Stroop card 3/((Stroop card 1+Stroop card 2)/2) and animal fluency test. […]

Data set [2] deals with frail elderly. As to the kind of experiment: Example 2: double-blind, randomized, placebo-controlled trial in the frail elderly. Format: in vivo, human. From the text: The design is a parallel group, randomized, placebo-controlled, double-blind study with three different application groups. Each group has an appropriate number of participants (e.g., 20 participants). Eligibility is defined as being 65 years or older and being frail or pre-frail. Frailty is defined as having unintentional weight loss, weakness, self-reported exhaustion, slow walking speed, and/or low physical activity (see Fried L P, et al. Frailty in older adults: evidence for a phenotype. J Gerontol A Biol Sci Med Sci. […] A participant is classified as pre-frail when one or two of the aforementioned criteria are met, while frail is classified when three or more criteria are present. […] The duration of supplementation is 6 months (180 days). […] Double-blind randomization is carried out by means of a label code associated with a specific participant ID number, whose meaning is known only to the supplier. Participants are allocated randomly to these numbers. […] For baseline (Day 0) the following tests are performed: […] […] Executive functioning test batteries include the following standard tests of executive functioning: Trail Making Tests A and B (to determine the ratio of TMT-B/TMT-A), Stroop Colour-Word Test, including determining the Stroop ratio, calculated by Stroop card 3/((Stroop card 1+Stroop card 2)/2) and animal fluency test. […]

The results in this text go back to US9707242B2, “Use of 25-hydroxyvitamin D3 to enhance executive functions” (DSM IP ASSETS B.V., priority 2013, dated 2017).

The structures appear in SMILES notation.

As for `C=C1CC[C@H](O)C/C1=C/C=C1\CCC[C@]2(C)[C@@H]([C@H](C)CCCC(C)(C)O)CC[C@@H]12` [25(OH)D, 25-hydroxyvitamin D3], the “25-OH D serum level” value in data set [1] is recorded as “significantly increases”. For the same molecule, in data set [2] (frail elderly, 6 months, in comparison to Vitamin D3 and placebo), the “improvement of executive functioning” value is “significantly higher effect”. Further, the “25-OH D3 serum level” value in data set [2] (in vivo) was “significantly increases”.
